According to patent US20230189864A1, “NON-THERAPEUTIC METHODS FOR MAINTAINING A HEALTHY BODY WEIGHT OR LOSING BODY WEIGHT” (FrieslandCampina Nederland B.V., priority 2019, published 2023):

Experiments:
[1] = system: pooled fecal microbiota from healthy lean subjects; assay: TIM-2 in vitro fermentation model, SCFA analysis; type: cell-based, human
From the text: The in vitro fermentation studies were done using the TIM-2 model. This is a validated, dynamic, computer-controlled model that simulates the human colon, mimicking body temperature, lumen pH, absorption of water and microbial metabolites through a semipermeable membrane inside the model, mixing and transporting the intestinal contents with peristaltic movements, using an anaerobic microbiota from human origin, it corresponds basically to the model as described in Minekus, M., et al. Appl. Microbiol. Biotechnol. 1999 53, 108 --- 114. doi: 10.1007/ s002530051622 and Kortman et al., Frontiers in Microbiology 2016, 6, 1481.
Characteristics of the movements of the contents in the TIM-2 system were simulated using an increase of the pH and peristaltic movements of the contents in the system using peristaltic pumps as described in Minekus, M (1998. Development and validation of a dynamic model of the gastrointestinal tract. PhD thesis, Delft University of Technology, The Netherlands).
SCFA analysis was performed at Brightlabs B.V., Venlo, The Netherlands), according to (Sáyago-Ayerdi SG, et al. Food Research International, E-pub date 13 Dec. 2017; Sayago Ayerdi et al Food Research International 118 (2019) 89-95).
Pooled fecal microbiota samples from 11 healthy lean subjects not suffering from any metabolic disease was used to inoculate the TIM-2 in vitro fermentation model.
The fecal microbiota was freshly sampled in and stored directly (within 2 h) on ice and under anaerobic conditions. Next, in an anaerobic cabinet, samples were diluted 1:1 with dialysate, and pooled at approximately equal weight, after which glycerol was added (to a final concentration of 12-13 w/w) and aliquots (30 ml/tube) were frozen in liquid nitrogen and stored at -80 ℃. […]
Samples (1 mL) were taken for SCFA analysis after 1, 2, 4, 6, 8 and 24 h after test product insertion; cumulative absolute amounts of SCFA were determined. […] The acids were detected using suppressed conductivity detection. […]

[2] = addition to infant formula; cited from earlier work
[3] = overweight men, cited from earlier work
[4] = TIM-2, microbiota of lean subjects (18.5 kg/m^2 ≤ BMI < 25 kg/m^2), 8-24 h, represents distal colon, single shot 7.5 g 2′-FL (± 7.5 g RS)
[5] = administered in the distal part of the colon

Row | Molecule | SCFA levels and in particular acetate levels in the distal colon (in words) ([1]; TIM-2, lean subjects' microbiota) | Acetate produced between 8 and 24 hours after insertion of the test product [1, 4] [mmol] | SCFA produced between 8 and 24 hours after insertion of the test product [1, 4] [mmol] | safety and tolerance [2] | circulating plasma concentrations of peptide YY (PYY) [3, 5] | fat oxidation [3, 5] | energy expenditure or substrate oxidation ([3]; administered in the proximal colon)
1 | 2′-Fucosyllactose [2′-FL w/o RS] | increased | 12 | 21 | safe and well-tolerated |  |  | 
2 | CC(=O)[O-].[Na+] [sodium acetate] |  |  |  |  | significantly increased | significantly increased | no effect
